Test results reported in patent US11427558B1, “Indazoles and azaindazoles as LRRK2 inhibitors” (ESCAPE Bio, Inc., priority 2019, dated 2022).

Experiments:
[1] = molecular target: Recombinant G2019S-LRRK2 protein (Homo sapiens (Human), UniProt Q5S007, G2019S); assay: LRRK2 kinase activity, LanthaScreen TR-FRET assay (G2019S); assay type: biochemical; conditions: LRRKtide 400 nM, 25 μM ATP, 60 min
Outline: (§1)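 Recombinant human wild-type or G2019S LRRK2 phosphorylated fluorescein-labelled LRRKtide (ERM-based) with ATP and serially diluted compound for 60 min at room temperature.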

[2] = molecular target: Recombinant wild type LRRK2 protein (Homo sapiens (Human), UniProt Q5S007); assay: LRRK2 kinase activity, LanthaScreen TR-FRET assay (wild type); assay type: biochemical; conditions: LRRKtide 400 nM, 25 μM ATP, 60 min; read-out: LRRK2 WT IC50
Outline: as §1

Chain of Recombinant G2019S-LRRK2 protein (Q5S007 whole entry G2019S): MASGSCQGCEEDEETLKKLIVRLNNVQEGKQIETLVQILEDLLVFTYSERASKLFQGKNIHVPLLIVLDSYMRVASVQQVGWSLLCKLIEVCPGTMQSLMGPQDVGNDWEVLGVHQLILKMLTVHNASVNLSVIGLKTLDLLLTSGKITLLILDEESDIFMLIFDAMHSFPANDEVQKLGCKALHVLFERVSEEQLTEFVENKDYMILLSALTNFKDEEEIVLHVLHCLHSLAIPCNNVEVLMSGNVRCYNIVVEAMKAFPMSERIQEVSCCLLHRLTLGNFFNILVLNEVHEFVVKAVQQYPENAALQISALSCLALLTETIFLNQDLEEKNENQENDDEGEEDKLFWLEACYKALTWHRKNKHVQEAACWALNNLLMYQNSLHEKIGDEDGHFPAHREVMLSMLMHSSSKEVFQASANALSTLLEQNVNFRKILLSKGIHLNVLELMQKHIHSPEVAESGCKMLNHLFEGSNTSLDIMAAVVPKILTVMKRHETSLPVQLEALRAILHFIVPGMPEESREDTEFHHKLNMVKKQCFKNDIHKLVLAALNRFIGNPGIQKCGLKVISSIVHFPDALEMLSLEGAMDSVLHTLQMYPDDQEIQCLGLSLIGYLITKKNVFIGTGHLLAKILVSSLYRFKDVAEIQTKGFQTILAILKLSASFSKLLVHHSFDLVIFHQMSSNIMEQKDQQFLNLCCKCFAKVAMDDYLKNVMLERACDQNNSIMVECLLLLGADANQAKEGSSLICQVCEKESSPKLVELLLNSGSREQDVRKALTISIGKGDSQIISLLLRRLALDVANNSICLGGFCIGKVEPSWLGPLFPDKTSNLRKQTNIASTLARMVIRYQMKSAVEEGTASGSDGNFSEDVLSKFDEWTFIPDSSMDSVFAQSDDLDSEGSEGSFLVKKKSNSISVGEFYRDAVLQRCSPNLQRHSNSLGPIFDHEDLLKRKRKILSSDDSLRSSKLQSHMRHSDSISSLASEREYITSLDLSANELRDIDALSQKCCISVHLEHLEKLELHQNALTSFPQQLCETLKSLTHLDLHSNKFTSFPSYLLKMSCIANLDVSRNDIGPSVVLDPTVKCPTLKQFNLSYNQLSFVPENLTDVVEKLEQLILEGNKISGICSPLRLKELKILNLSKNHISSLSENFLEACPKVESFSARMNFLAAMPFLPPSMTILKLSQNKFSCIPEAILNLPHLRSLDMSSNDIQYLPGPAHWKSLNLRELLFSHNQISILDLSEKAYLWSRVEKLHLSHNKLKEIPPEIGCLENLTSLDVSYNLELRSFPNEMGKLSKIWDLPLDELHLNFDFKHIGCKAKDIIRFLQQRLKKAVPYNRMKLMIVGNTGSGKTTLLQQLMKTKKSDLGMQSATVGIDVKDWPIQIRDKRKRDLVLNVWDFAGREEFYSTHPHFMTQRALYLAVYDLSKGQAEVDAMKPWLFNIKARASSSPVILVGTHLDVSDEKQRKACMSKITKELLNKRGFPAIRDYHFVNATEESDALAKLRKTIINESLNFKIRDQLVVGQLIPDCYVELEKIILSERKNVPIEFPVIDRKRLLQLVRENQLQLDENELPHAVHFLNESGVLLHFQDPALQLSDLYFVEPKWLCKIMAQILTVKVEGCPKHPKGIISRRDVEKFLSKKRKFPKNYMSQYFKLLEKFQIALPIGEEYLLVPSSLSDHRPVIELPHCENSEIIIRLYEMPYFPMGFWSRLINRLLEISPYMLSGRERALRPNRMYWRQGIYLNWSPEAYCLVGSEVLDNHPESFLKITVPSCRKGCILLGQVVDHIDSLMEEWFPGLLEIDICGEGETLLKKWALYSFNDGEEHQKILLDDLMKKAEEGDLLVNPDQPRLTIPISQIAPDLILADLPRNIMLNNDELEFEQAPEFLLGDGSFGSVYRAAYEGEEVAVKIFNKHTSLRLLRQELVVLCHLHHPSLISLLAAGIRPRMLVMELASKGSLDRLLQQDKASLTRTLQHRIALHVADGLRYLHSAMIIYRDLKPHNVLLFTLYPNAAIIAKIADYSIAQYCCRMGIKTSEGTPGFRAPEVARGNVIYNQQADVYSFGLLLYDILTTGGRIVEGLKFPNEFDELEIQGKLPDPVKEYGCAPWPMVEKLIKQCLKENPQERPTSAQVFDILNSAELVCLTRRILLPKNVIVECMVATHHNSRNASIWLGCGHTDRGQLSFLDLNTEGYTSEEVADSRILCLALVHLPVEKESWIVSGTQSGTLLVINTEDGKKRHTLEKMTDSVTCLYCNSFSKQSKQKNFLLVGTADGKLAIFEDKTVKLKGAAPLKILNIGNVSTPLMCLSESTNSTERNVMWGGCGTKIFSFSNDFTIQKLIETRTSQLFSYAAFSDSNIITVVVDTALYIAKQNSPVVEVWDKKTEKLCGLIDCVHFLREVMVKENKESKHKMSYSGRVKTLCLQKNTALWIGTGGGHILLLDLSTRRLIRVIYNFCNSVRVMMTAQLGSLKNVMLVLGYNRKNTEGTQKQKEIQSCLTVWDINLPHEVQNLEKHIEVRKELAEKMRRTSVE
Chain of Recombinant wild type LRRK2 protein (Q5S007 whole entry): as the sequence (Q5S007 whole entry G2019S) above, with S2019G counted along it

Row | SMILES | IC50 [1] [nM] | IC50 [2] [nM]
1 | COc1cc(-c2n[nH]c3ccc(NC(=O)c4ncc(C#N)c(C)c4C)cc23)cc(C)n1 [Example 219, 5-Cyano-N-(3-(2-methoxy-6-methylpyridin-4-yl)-1H-indazol-5-yl)-3,4-dimethylpicolinamide] | < 100 | < 100
2 | N#Cc1cccc(C(=O)Nc2ccc3[nH]nc(-c4cnoc4)c3c2)c1Cl [Example 220, 2-Chloro-3-cyano-N-(3-(isoxazol-4-yl)-1H-indazol-5-yl)benzamide] | < 100 | < 100
3 | Cc1c(C#N)cnc(C(=O)Nc2ccc3[nH]nc(-c4cnn(C5COC5)c4)c3c2)c1C [Example 221, 5-Cyano-3,4-dimethyl-N-(3-(1-(oxetan-3-yl)-1H-pyrazol-4-yl)-1H-indazol-5-yl)picolinamide] | < 100 | < 100
4 | Cc1nc(C(=O)Nc2ccc3[nH]nc(-c4cncs4)c3c2)c(C)c(C)c1C#N [Example 222, 5-Cyano-3,4,6-trimethyl-N-(3-(thiazol-5-yl)-1H-indazol-5-yl)picolinamide] | < 100 | < 100
5 | Cc1c(C#N)cnc(C(=O)Nc2ccc3[nH]nc(C4CC4)c3c2)c1C [Example 223, 5-Cyano-N-(3-cyclopropyl-1H-indazol-5-yl)-3,4-dimethylpicolinamide] | < 100 | 1000 to 10000
6 | Cn1cc(C(=O)Nc2ccc3[nH]nc(-c4cnco4)c3c2)cc(C#N)c1=O [Example 224, 5-cyano-1-methyl-N-(3-(oxazol-5-yl)-1H-indazol-5-yl)-6-oxo-1,6-dihydropyridine-3-carboxamide] | < 100 | < 100
7 | CC(C)c1c(C#N)cccc1C(=O)Nc1ccc2[nH]nc(-c3cnco3)c2c1 [Example 225, 3-Cyano-2-isopropyl-N-(3-(oxazol-5-yl)-1H-indazol-5-yl)benzamide] | < 100 | < 100
8 | COc1c(C#N)cnc(C(=O)Nc2ccc3[nH]nc(-c4cnoc4)c3c2)c1C [Example 226, 5-Cyano-N-(3-(isoxazol-4-yl)-1H-indazol-5-yl)-4-methoxy-3-methylpicolinamide] | < 100 | < 100
9 | Cc1c(C#N)cnc(C(=O)Nc2ccc3[nH]nc(-c4cncs4)c3c2)c1C [Example 227, 5-Cyano-3,4-dimethyl-N-(3-(thiazol-5-yl)-1H-indazol-5-yl)picolinamide] | < 100 | < 100
10 | COc1c(C#N)ccnc1C(=O)Nc1ccc2[nH]nc(-c3cnoc3)c2c1 [Example 228, 4-Cyano-N-(3-(isoxazol-4-yl)-1H-indazol-5-yl)-3-methoxypicolinamide] | < 100 | 100 to 1000
11 | Cc1cc(-c2n[nH]c3ccc(NC(=O)c4ncc(C#N)c(C)c4C)cc23)on1 [Example 229, 5-Cyano-3,4-dimethyl-N-(3-(3-methylisoxazol-5-yl)-1H-indazol-5-yl)picolinamide] | < 100 | < 100
12 | Cc1c(C#N)cnc(C(=O)Nc2ccc3[nH]nc(-c4ccncn4)c3c2)c1C [Example 230, 5-Cyano-3,4-dimethyl-N-(3-(pyrimidin-4-yl)-1H-indazol-5-yl)picolinamide] | < 100 | 100 to 1000
13 | CCc1c(C#N)ccc(F)c1C(=O)Nc1ccc2[nH]nc(-c3cnco3)c2c1 [Example 231, 3-Cyano-2-ethyl-6-fluoro-N-(3-(oxazol-5-yl)-1H-indazol-5-yl)benzamide] | < 100 | < 100
14 | CCc1c(C(=O)Nc2ccc3[nH]nc(-c4cnco4)c3c2)ccnc1C#N [Example 232, 2-Cyano-3-ethyl-N-(3-(oxazol-5-yl)-1H-indazol-5-yl)isonicotinamide] | < 100 | < 100
15 | Cc1c(C#N)cnc(C(=O)Nc2ccc3[nH]nc(/C=C/C4CC4)c3c2)c1C [Example 233, (E)-5-Cyano-N-(3-(2-cyclopropylvinyl)-1H-indazol-5-yl)-3,4-dimethylpicolinamide] | < 100 | < 100
16 | COc1c(C#N)ccc(C)c1C(=O)Nc1ccc2[nH]nc(-c3cnco3)c2c1 [Example 234, 3-Cyano-2-methoxy-6-methyl-N-(3-(oxazol-5-yl)-1H-indazol-5-yl)benzamide] | < 100 | < 100
17 | Cc1cc(-c2n[nH]c3ccc(NC(=O)c4ncc(C#N)cc4C)cc23)on1 [Example 235, 5-Cyano-3-methyl-N-(3-(3-methylisoxazol-5-yl)-1H-indazol-5-yl)picolinamide] | < 100 | < 100
18 | Cc1ccc(C#N)c(F)c1C(=O)Nc1ccc2[nH]nc(-c3cnoc3)c2c1 [Example 236, 3-Cyano-2-fluoro-N-(3-(isoxazol-4-yl)-1H-indazol-5-yl)-6-methylbenzamide] | < 100 | < 100
19 | Cc1nccc(-c2n[nH]c3ccc(NC(=O)c4ncc(C#N)c(C)c4C)cc23)n1 [Example 237, 5-Cyano-3,4-dimethyl-N-(3-(2-methylpyrimidin-4-yl)-1H-indazol-5-yl)picolinamide] | < 100 | < 100

Row | SMILES | IC50 [1] [nM] | IC50 [2] [nM]
20 | Cc1c(C#N)cnc(C(=O)Nc2cc3c(-c4cnco4)n[nH]c3cn2)c1C [Example 238, 5-Cyano-3,4-dimethyl-N-(3-(oxazol-5-yl)-1H-pyrazolo[3,4-c]pyridin-5-yl)picolinamide] | < 100 | 100 to 1000
21 | Cc1c(C#N)nn(C)c1C(=O)Nc1ccc2[nH]nc(-c3cnco3)c2c1 [Example 239, 3-Cyano-1,4-dimethyl-N-(3-(oxazol-5-yl)-1H-indazol-5-yl)-1H-pyrazole-5-carboxamide] | 100 to 1000 | < 100
22 | Cc1c(C#N)cnc(C(=O)Nc2ccc3[nH]nc(-c4cn(C)nn4)c3c2)c1C [Example 240, 5-Cyano-3,4-dimethyl-N-(3-(1-methyl-1H-1,2,3-triazol-4-yl)-1H-indazol-5-yl)picolinamide] | < 100 | 100 to 1000
23 | Cc1cc(C#N)cnc1C(=O)Nc1ccc2[nH]nc(-c3cn(C)nn3)c2c1 [Example 241, 5-Cyano-3-methyl-N-(3-(1-methyl-1H-1,2,3-triazol-4-yl)-1H-indazol-5-yl)picolinamide] | 100 to 1000 | 100 to 1000
24 | Cc1cc(C#N)cnc1C(=O)Nc1ccc2[nH]nc(-n3ccoc3=O)c2c1 [Example 242, 5-Cyano-3-methyl-N-(3-(2-oxooxazol-3(2H)-yl)-1H-indazol-5-yl)picolinamide] | < 100 | 1000 to 10000
25 | CC(C)=Cc1n[nH]c2ccc(NC(=O)c3ncc(C#N)c(C)c3C)cc12 [Example 243, 5-Cyano-3,4-dimethyl-N-(3-(2-methylprop-1-en-1-yl)-1H-indazol-5-yl)picolinamide] | < 100 | 100 to 1000
26 | Cc1c(C#N)cnc(C(=O)Nc2ccc3[nH]nc(/C=C/c4ccccc4)c3c2)c1C [Example 244, (E)-5-Cyano-3,4-dimethyl-N-(3-styryl-1H-indazol-5-yl)picolinamide] | < 100 | < 100
27 | C/C=C/c1n[nH]c2ccc(NC(=O)c3ncc(C#N)c(C)c3C)cc12 [Example 245, (E)-5-cyano-3,4-dimethyl-N-(3-(prop-1-en-1-yl)-1H-indazol-5-yl)picolinamide] | < 100 | 100 to 1000
28 | Cc1c(C#N)cn(C)c1C(=O)Nc1ccc2[nH]nc(-c3cnoc3)c2c1 [Example 246, 4-Cyano-N-(3-(isoxazol-4-yl)-1H-indazol-5-yl)-1,3-dimethyl-1H-pyrrole-2-carboxamide] | < 100 | < 100
29 | Cn1cc(C#N)cc1C(=O)Nc1ccc2[nH]nc(-c3cnoc3)c2c1 [Example 247, 4-Cyano-N-(3-(isoxazol-4-yl)-1H-indazol-5-yl)-1-methyl-1H-pyrrole-2-carboxamide] | < 100 | < 100
30 | Cc1c(C#N)cnc(C(=O)Nc2ccc3[nH]nc(/C=C/c4ccccn4)c3c2)c1C [Example 248, (E)-5-Cyano-3,4-dimethyl-N-(3-(2-(pyridin-2-yl)vinyl)-1H-indazol-5-yl)picolinamide] | < 100 | < 100
31 | COc1cc(C(=O)Nc2ccc3[nH]nc(-c4cnco4)c3c2)ncc1C#N [Example 249, 5-Cyano-4-methoxy-N-(3-(oxazol-5-yl)-1H-indazol-5-yl)picolinamide] | < 100 | 100 to 1000
32 | C=C(C)c1cc(C#N)cnc1C(=O)Nc1ccc2[nH]nc(-c3cnco3)c2c1 [Example 250, 5-Cyano-N-(3-(oxazol-5-yl)-1H-indazol-5-yl)-3-(prop-1-en-2-yl)picolinamide] | < 100 | < 100
33 | CC(C)c1cc(C#N)cnc1C(=O)Nc1ccc2[nH]nc(-c3cnco3)c2c1 [Example 251, 5-Cyano-3-isopropyl-N-(3-(oxazol-5-yl)-1H-indazol-5-yl)picolinamide] | < 100 | 100 to 1000
34 | Cc1c(C#N)cnc(C(=O)Nc2ccc3[nH]nc([C@@H]4CC4c4ccccc4)c3c2)c1C (stereo partly drawn) [Example 252, 5-Cyano-3,4-dimethyl-N-(3-((1R)-2-phenylcyclopropyl)-1H-indazol-5-yl)picolinamide] | < 100 | 100 to 1000
35 | Cc1cc(C#N)cnc1C(=O)Nc1ccc2[nH]nc(N3CCC3)c2c1 [Example 253, N-(3-(Azetidin-1-yl)-1H-indazol-5-yl)-5-cyano-3-methylpicolinamide] | 100 to 1000 | 1000 to 10000
36 | Cc1cc(C#N)cnc1C(=O)Nc1ccc2[nH]nc(N3CC(F)(F)C3)c2c1 [Example 254, 5-Cyano-N-(3-(3,3-difluoroazetidin-1-yl)-1H-indazol-5-yl)-3-methylpicolinamide] | 100 to 1000 | 1000 to 10000
37 | Cc1cc(C#N)cnc1C(=O)Nc1ccc2[nH]nc(OCc3ccccc3)c2c1 [Example 255, N-(3-(Benzyloxy)-1H-indazol-5-yl)-5-cyano-3-methylpicolinamide] | < 100 | 100 to 1000
38 | Cc1cc(C#N)cnc1C(=O)Nc1ccc2[nH]nc(C3COC3)c2c1 [Example 256, 5-Cyano-3-methyl-N-(3-(oxetan-3-yl)-1H-indazol-5-yl)picolinamide] | 1000 to 10000 | 1000 to 10000
